Patent US20120225417A1, “Methods, Compositions and Kits for the Evaluation and Preservation of Sperm” (I'Alliance Boviteq Inc., priority 2011, published 2012)

System: 3′-5′ cAMP-PDE activity in human spermatozoa
Assay: 3′-5′ cAMP-PDE assay with family-specific PDE inhibitors in human spermatozoa
Format: biochemical
Settings: 95% fractionation method, papaverine 400 nM (FIG. 18)
Experimental: Ejaculates were obtained by masturbation from healthy donors after a minimum of 2 days of sexual abstinence. After ejaculation, semen was kept at room temperature to allow liquefaction. To prepare human ejaculate, three different fractionation methods were used: “G2 method”, “40-80% fractionation” or “95% fractionation”.
For “G2 method”, according to the ejaculate volume, approximately 1 ml of semen was added to 5 ml of isotonic solution: HEPES-buffered saline (HBS: 25 mM Hepes, 130 mM NaCl, 4 mM KCl, 0.5 mM MgCl2, 14 mM fructose, pH 7.6) in a 15 mL falcon tube to wash the spermatozoa from the seminal plasma. […] Then, the samples were vortex-agitated for 30 sec and kept on the ice until ready to run the assay. The concentration of sperm cells was measured according to hemacytometer method. […]
The cAMP enzymatic assay (PDE assay) was conducted as previously described (Sasseville, M. et al., (2006). BMC developmental biology 6, 47). […] 3′-5′ cAMP-PDE activity was assessed at 34° C. in 200 μL final volume using 1 μM cAMP as substrate (Thompson, W. J. et al., (1979). Adv Cyclic Nucleotide Res 10, 69-92) with minor modifications. […] Knowing the exact concentrations of spermatozoa in each SP sample, total 3′-5′ cAMP-PDE activity was reported as the quantity of cAMP (fMol) hydrolysed per minute per the number of spermatozoa (fMol/min/10^6 spz). […]

COc1ccc(Cc2nccc3cc(OC)c(OC)cc23)cc1OC [Papaverine]
Share of cAMP-PDE activity that is papaverine-sensitive: more than 50%
